# Experimental data from ChEMBL document CHEMBL5614450, “SAR Study of 4,8-Disubstituted Pyrimido[5,4-d]pyrimidines Exhibiting Antitrypanosomal and Antileishmanial Activity” (ACS Med Chem Lett, 2024).
# Experiments:
# [1] = Cytotoxicity against human HEK293 cells assessed as reduction in cell viability at 10 uM incubated for 24 hrs by Cell-Titer Glo luminescence assay; assay type: toxicity, cell-based; settings: read-out: INH
# [2] = Selectivity index, ratio of CC50 for cytotoxicity against human THP-1 cells to IC50 for anti-trypanosomal activity against trypomastigote blood stage of Trypanosoma brucei Lister 427; assay type: toxicity, cell-based; settings: read-out: Ratio CC50/IC50
# [3] = Cytotoxicity against human THP-1 cells assessed as reduction in cell viability incubated for 72 hrs by MTT assay; assay type: toxicity, cell-based
# [4] = Cytotoxicity against human A549 cells assessed as reduction in cell viability at 10 uM incubated for 24 hrs by Cell-Titer Glo luminescence assay; assay type: toxicity, cell-based; settings: read-out: INH
# hERG (KCNH2) = hERG (KCNH2) (Homo sapiens, UniProt Q12809); assay: Displacement of tracer from hERG extracted from membrane at 10 uM incubated for 2 hrs by fluorescence polarization assay; assay type: toxicity, cell membranes; settings: hERG membrane preparation, probe tracer (not named)
# CYP3A4 = CYP3A4 (Homo sapiens, UniProt P08684); assay: Inhibition of human CYP3A4 expressed in insect cell microsomes at 10 uM preincubated for 20 mins followed by NADP+ and substrate addition and measured after 10 mins by fluorescence based analysis; assay type: ADME, Microsome; settings: recombinant human CYP3A4 expressed in insect cell microsomes, time 30 min
# Leishmania infantum [5] = assay: Anti-leishmanial activity against promastigote stage of Leishmania infantum MHOM/MA/67/ITMAP-263 assessed as inhibition of parasite growth at 10 uM incubated for 72 hrs by resazurin-dye based assay; assay type: functional
# Trypanosoma brucei = assay: Anti-trypanosomal activity against trypomastigote blood stage of Trypanosoma brucei Lister 427 assessed as inhibition of parasite growth incubated for 72 hrs by resazurin-dye based assay; assay type: functional, organism-based; settings: Lister 427, 72 h
# [6] = Selectivity index, ratio of CC50 for cytotoxicity against human THP-1 cells to IC50 for anti-leishmanial activity against promastigote stage of Leishmania infantum MHOM/MA/67/ITMAP-263; assay type: toxicity, cell-based; settings: read-out: Ratio CC50/IC50
# Leishmania infantum [7] = assay: Anti-leishmanial activity against luciferase expressing intracellular amastigote stage of Leishmania infantum MHOM/MA/67/ITMAP-263 infected in human THP-1 cells assessed as inhibition of parasite growth at 10 uM incubated for 72 hrs by Steady-Glo luciferase assay; assay type: functional; settings: MHOM/MA/67/ITMAP-263, THP-1
# Leishmania infantum [8] = assay: Anti-leishmanial activity against promastigote stage of Leishmania infantum MHOM/MA/67/ITMAP-263 assessed as inhibition of parasite growth incubated for 72 hrs by resazurin-dye based assay; assay type: functional, organism-based; settings: MHOM/MA/67/ITMAP-263, 72 h
# Leishmania infantum [9] = assay: Anti-leishmanial activity against luciferase expressing intracellular amastigote stage of Leishmania infantum MHOM/MA/67/ITMAP-263 infected in human THP-1 cells assessed as inhibition of parasite growth incubated for 72 hrs by Steady-Glo luciferase assay; assay type: functional, organism-based; settings: MHOM/MA/67/ITMAP-263, THP-1, 72 h
# [10] = Selectivity index, ratio of CC50 for cytotoxicity against human THP-1 cells to IC50 for anti-leishmanial activity against luciferase expressing intracellular amastigote stage of Leishmania infantum MHOM/MA/67/ITMAP-263 infected in human THP-1 cells; assay type: toxicity, cell-based; settings: read-out: Ratio CC50/IC50
# Sequence of CYP3A4 (P08684 whole entry): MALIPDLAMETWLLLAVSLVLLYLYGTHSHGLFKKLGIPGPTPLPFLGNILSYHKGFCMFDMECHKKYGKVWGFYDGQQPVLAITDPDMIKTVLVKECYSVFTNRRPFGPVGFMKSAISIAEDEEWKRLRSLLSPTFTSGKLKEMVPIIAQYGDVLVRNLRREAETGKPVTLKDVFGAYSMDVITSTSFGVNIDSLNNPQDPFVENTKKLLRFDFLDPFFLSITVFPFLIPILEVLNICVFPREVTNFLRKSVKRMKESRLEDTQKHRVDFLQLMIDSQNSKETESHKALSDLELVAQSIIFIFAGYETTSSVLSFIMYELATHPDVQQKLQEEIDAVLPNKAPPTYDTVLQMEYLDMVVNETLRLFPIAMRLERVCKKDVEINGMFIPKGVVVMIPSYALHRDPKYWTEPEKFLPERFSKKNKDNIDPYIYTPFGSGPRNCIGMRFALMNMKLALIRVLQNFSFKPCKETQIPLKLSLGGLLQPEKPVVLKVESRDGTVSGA
# Sequence of hERG (KCNH2) (Q12809 whole entry): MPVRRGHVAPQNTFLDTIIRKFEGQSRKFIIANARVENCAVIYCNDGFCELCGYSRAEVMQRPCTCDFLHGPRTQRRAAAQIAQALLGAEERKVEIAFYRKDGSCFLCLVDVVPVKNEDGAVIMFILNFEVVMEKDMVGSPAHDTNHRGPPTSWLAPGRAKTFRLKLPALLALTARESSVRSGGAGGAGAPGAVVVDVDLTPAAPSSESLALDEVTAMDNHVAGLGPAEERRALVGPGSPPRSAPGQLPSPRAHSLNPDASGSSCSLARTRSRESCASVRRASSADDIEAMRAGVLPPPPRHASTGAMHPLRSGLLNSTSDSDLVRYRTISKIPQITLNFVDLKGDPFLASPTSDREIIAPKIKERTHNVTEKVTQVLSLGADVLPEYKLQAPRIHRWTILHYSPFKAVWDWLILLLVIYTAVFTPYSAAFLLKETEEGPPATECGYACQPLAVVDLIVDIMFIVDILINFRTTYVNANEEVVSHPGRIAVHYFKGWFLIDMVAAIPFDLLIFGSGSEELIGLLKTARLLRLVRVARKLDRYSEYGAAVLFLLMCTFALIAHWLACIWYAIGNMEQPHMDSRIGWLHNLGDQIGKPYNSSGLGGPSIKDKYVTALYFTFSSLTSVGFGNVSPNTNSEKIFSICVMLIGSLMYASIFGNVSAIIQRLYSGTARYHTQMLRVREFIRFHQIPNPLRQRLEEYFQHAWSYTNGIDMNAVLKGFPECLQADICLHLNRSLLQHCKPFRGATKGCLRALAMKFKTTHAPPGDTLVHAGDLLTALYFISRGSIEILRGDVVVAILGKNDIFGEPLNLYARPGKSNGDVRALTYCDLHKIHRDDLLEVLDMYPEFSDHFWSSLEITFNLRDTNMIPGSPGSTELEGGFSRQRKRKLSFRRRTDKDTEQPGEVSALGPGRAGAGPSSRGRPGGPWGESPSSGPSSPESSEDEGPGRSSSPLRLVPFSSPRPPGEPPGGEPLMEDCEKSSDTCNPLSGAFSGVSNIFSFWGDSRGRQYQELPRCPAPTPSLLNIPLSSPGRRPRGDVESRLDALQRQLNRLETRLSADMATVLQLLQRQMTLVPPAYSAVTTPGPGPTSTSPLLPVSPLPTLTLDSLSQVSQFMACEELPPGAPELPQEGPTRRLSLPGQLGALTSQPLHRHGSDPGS
Structure (SMILES),"cytotoxicity at 24 h, 10 µM [1] [%]",selectivity ratio [2],CC50 at 72 h [3] [nM],"cytotoxicity at 24 h, 10 µM [4] [%]","inhibition at 2 h, 10 µM (hERG (KCNH2)) [%]","inhibition at 10 min, 10 µM (CYP3A4) [%]",inhibition at 10 µM (Leishmania infantum [5]) [%],IC50 (Trypanosoma brucei) [nM],selectivity ratio [6],inhibition at 10 µM (Leishmania infantum [7]) [%],IC50 (Leishmania infantum [8]) [nM],IC50 (Leishmania infantum [9]) [nM],selectivity ratio [10]
Oc1ccc(/C=N/Nc2ncnc3c(Nc4ccc(Cl)c(C(F)(F)F)c4)ncnc23)cc1O,3,> 23,> 10000,15,29,0,5,430,,,,,
Oc1ccc(/C=N/Nc2ncnc3c(Nc4ccc(OC(F)(F)F)cc4)ncnc23)cc1O,24,> 29,> 10000,18,21,0,52,350,1,< 0,14900,,
COc1cc(/C=N/Nc2ncnc3c(Nc4ccc(F)c(Cl)c4)ncnc23)ccc1O,13,> 196,> 50000,2,7,24,19,260,,,,,
COc1cc(/C=N/Nc2ncnc3c(Nc4ccc(F)c(Cl)c4)ncnc23)cc(OC)c1OC,14,> 1,> 10000,14,5,30,20,8720,,,,,
Oc1cc(/C=N/Nc2ncnc3c(Nc4ccc(Cl)c(C(F)(F)F)c4)ncnc23)cc(O)c1O,-2,> 4,> 10000,-4,49,11,< 0,2760,,,,,
COc1ccc(/C=N/Nc2ncnc3c(Nc4ccc(F)c(Cl)c4)ncnc23)cc1O,-3,> 2,> 10000,-9,-7,20,13,5810,,,,,
COc1ccc(Nc2ncnc3c(N/N=C/c4cc(O)c(O)c(O)c4)ncnc23)cc1,3,> 185,> 100000,12,48,0,94,540,> 502,41,200,> 20000,
N=C(N)c1ccc(OCCCCCOc2ccc(C(=N)N)cc2)cc1 [PENTAMIDINE],,,< 10000,,,,,3,,,,,
COc1cc(/C=N/Nc2ncnc3c(Nc4ccc(Cl)c(C(F)(F)F)c4)ncnc23)cc(OC)c1O,-1,> 2,> 10000,-2,3,19,9,5630,,,,,
Oc1cc(/C=N/Nc2ncnc3c(Nc4ccc(OC(F)(F)F)cc4)ncnc23)cc(O)c1O,7,> 64,> 10000,9,30,21,5,160,,,,,
COc1cccc(Nc2ncnc3c(N/N=C/c4ccc(OC)c(OC)c4)ncnc23)c1,18,> 38,> 50000,40,35,0,98,1320,> 35,34,1440,> 20000,
COc1ccc(Nc2ncnc3c(NN)ncnc23)cc1,-7,> 71,> 50000,-14,7,12,99,710,69,< 0,720,,
COc1cc(/C=N/Nc2ncnc3c(Nc4ccc(OC(F)(F)F)cc4)ncnc23)ccc1O,19,> 54,> 10000,38,64,0,50,180,1,< 0,8750,,
COc1cc(/C=N/Nc2ncnc3c(Nc4ccc(OC(F)(F)F)cc4)ncnc23)cc(OC)c1OC,2,> 26,> 10000,6,21,11,24,390,,,,,
Oc1cc(/C=N/Nc2ncnc3c(Nc4ccc(F)c(Cl)c4)ncnc23)cc(O)c1O,24,> 26,> 10000,27,62,0,0,380,,,,,
COc1cccc(Nc2ncnc3c(N/N=C/c4cc(O)c(O)c(O)c4)ncnc23)c1,8,> 37,> 100000,-6,34,0,95,2710,> 221,4,450,,
CCCCCCCCCCCCCCCCOP(=O)([O-])OCC[N+](C)(C)C [MILTEFOSINE],,,,,,,97,,2.5,99,11900,710,42
Oc1ccc(/C=N/Nc2ncnc3c(Nc4ccc(F)c(Cl)c4)ncnc23)cc1O,-6,> 85,> 50000,-6,7,25,13,590,,,,,
COc1cc(/C=N/Nc2ncnc3c(Nc4ccc(Cl)c(C(F)(F)F)c4)ncnc23)cc(OC)c1OC,-2,> 6,> 10000,-7,24,20,22,1760,,,,,
COc1cc(/C=N/Nc2ncnc3c(Nc4ccc(F)c(Cl)c4)ncnc23)cc(OC)c1O,11,> 17,> 100000,5,38,32,< 0,5830,,,,,
COc1ccc(/C=N/Nc2ncnc3c(Nc4ccc(OC(F)(F)F)cc4)ncnc23)cc1O,10,> 39,> 10000,38,61,0,60,260,4,< 0,2540,,
COc1ccc(/C=N/Nc2ncnc3c(Nc4ccc(Cl)c(C(F)(F)F)c4)ncnc23)cc1O,-3,> 7,> 10000,3,7,27,12,1440,,,,,
COc1cccc(Nc2ncnc3c(NN)ncnc23)c1,12,> 438,> 50000,16,14,65,99,110,178,< 0,280,,
NNc1ncnc2c(Nc3ccc(OC(F)(F)F)cc3)ncnc12,17,> 55,> 10000,17,30,20,18,180,,,,,
